We go through 10 molecules from patent US9187790B2, “Saccharification of lignocellulosic biomass” (priority 2012, dated 2015).

The structures appear in SMILES notation. Where a name gives a salt, the structure may show the parent alone. Read-outs that look alike come from different tables or passages of the source.

The conditions of series [1]: for Conversion: 1 ml H2O, 1500 mg LiBr, 100 mg spruce powder, 2 mg acid, 140° C., 30 min.
Series [2] in a line: Extraction of CaBr2 from CaBr2-glucose solution with n-butanol/hexane. It counts as physicochemical. As for the experimental part: As mentioned above, CaBr2 can work as effectively as LiBr to hydrolyze lignocellulosic biomass. CaBr2 was extracted from glucose with the butanol extraction method as described above (A). […] More than half of the initial glucose was extracted to the solvent phase. […] Only 10 mg glucose was extracted into 5:5 butanol/hexane.

Series [3] can be described thus: Hydrolysis of biomass in concentrated solutions of different salts. The conditions noted are these: for conversion/hydrolysis of polysaccharides (in words): concentration of salt 60%.
From the text: Hydrolysis of biomass in different metal halide solutions was investigated.
In another series the test system is Saccharomyces cerevisiae. In words: Glucose fermentation to ethanol in the presence of residual salt. It counts as cell-based. From the text:
Complete separation of LiBr from sugars is difficult and expensive. Small amounts of LiBr or CaBr2 may be retained in the sugar product stream generated by the processes of this invention. If the sugars are intended for use for fermentation, the residual salt could potentially affect the fermentation. […]

Series [4] can be described thus: Extraction of LiBr from LiBr-glucose solution with n-butanol/hexane. It counts as physicochemical. Details: Glucose retained/extraction steps: unit not given here. As to conditions: for LiBr content left in the LiBr-glucose solution: butanol to hexane 7:3; for LiBr extracted / LiBr/sugar (separation efficiency) / Glucose extracted: organic phase from the 1st extraction; for glucose extracted into the butanol phase: butanol to hexane ratio 7/3; for Glucose retained after extraction: 200 mg glucose and 1500 mg LiBr in 1 mL water. From the text:
A LiBr-glucose solution was first used to test the butanol extraction.

The nature of series [5]: Solubility in water and organic solvent. The format is physicochemical. The conditions noted are these: 60% salt in water. The source says: After the extraction, any small amount of LiBr in the sugar stream can be removed by means of ion exchange resin, crystallization, precipitation with anti-solvent, and precipitation with sodium carbonate, as described in Examples herein.

Series [6] in a line: Crystallization/precipitation of glucose by ethanol. It counts as physicochemical. As to conditions: 400 mg glucose, 2 mL ethanol, 120° C. then cooled to room temperature. Here is the method: Glucose was dissolved in ethanol by heating to 120° C. to facilitate dissolution. The resulting clear solution was then cooled to room temperature with stirring to allow sugar crystallization (or precipitation). Precipitated glucose was filtered and washed with ethanol. However, a small amount of glucose was found dissolved in ethanol, and therefore glucose was not fully recovered. […] The same crystallization operation was carried out as for pure glucose above. […] Almost all other sugars and LiBr were however retained in the ethanol. […] In addition, xylose may negatively affect the crystallization of glucose.

The conditions of series [7]: cited from earlier work.
[8] abbreviates: over the investigated concentrations (0 to 5% w/v).
The mark [9] stands for this setting: salt concentration 2% (w/v), FIG. 9A.
The mark [10] stands for this setting: butanol:hexane 5:5 (v/v), 15 extraction steps.
Setting [11] is: butanol:hexane 6:4 (v/v), 13 extraction steps.
Setting [12] is: butanol:hexane 6.5:3.5 (v/v), 12 extraction steps.
The mark [13] stands for this setting: butanol:hexane 7:3 (v/v), 10 extraction steps.
[14] abbreviates: butanol:hexane 7.5:2.5 (v/v), 9 extraction steps.
Setting [15] is: butanol:hexane 8:2 (v/v), 9 extraction steps.
Where [16] appears, read: butanol:hexane 8.5:1.5 (v/v), 8 extraction steps.
[17] abbreviates: butanol:hexane 9:1 (v/v), 7 extraction steps.
Where [18] appears, read: butanol:hexane 10:0 (v/v), 6 extraction steps.

In series [1], `CC(=O)O` [CH3COOH, acetic acid] registered a Conversion of 90%.

As for `[Br-].[Br-].[Ca+2]` [CaBr2], the “CaBr2 left in the solution” value in series [2] (butanol/hexane 5:5, 30 extractions, from 1500 mg) is given as 70 mg. Also, in series [3], the “conversion/hydrolysis of polysaccharides (in words)” value (“conversion/hydrolysis” for short) is listed as “complete conversion/hydrolysis”. Further, the ethanol yield result in the series with Saccharomyces cerevisiae (compared with LiBr, FIG. 8) is recorded as “higher”. In addition, the “inhibition on sugar fermentation” value with Saccharomyces cerevisiae (setting [8]) is “generally less inhibitory”; with Saccharomyces cerevisiae (setting [9]), “more inhibitory than NaCl and CaCl2”; with Saccharomyces cerevisiae (salt concentration 5% (w/v)) it was “Inhibition became more significant”.

`[Ca+2].[Cl-].[Cl-]` [CaCl2, calcium chloride, reference compound]: the Conversion in series [3] was 70%. Besides, the “inhibition on sugar fermentation” value with Saccharomyces cerevisiae (setting [8]) is “does not appear to be inhibitory”.

In the case of `O=P(O)(O)O` [H3PO4, phosphoric acid], the Conversion in series [1] is 95%.

With `Cl` [HCl, hydrochloric acid], in series [1], the Conversion amounted to 100%.

In series [1], `O=[N+]([O-])O` [HNO3, nitric acid] yielded a Conversion of 100%. Further, the “effectiveness in catalyzing the hydrolysis of spruce (in words)” value in series [1] (60% LiBr solution) is on record as “as effective as hydrochloric acid”.

Regarding `[Br-].[Li+]` [LiBr, Lithium bromide], the “LiBr content left in the LiBr-glucose solution” value in series [4] (after 10 extractions, from 1500 mg) is given as 250 mg; in series [4] (after 20 extractions) it was 50 mg; in series [4] (after 30 extractions) it was 30 mg. For the same molecule, the LiBr extracted in series [4] (butanol:hexane 5:5) worked out at 141 mg; in series [4] (butanol:hexane 6:4), 152 mg; in series [4] (butanol:hexane 6.5:3.5), 195 mg; in series [4] (butanol:hexane 7:3), 216 mg; in series [4] (butanol:hexane 7.5:2.5) it was 231 mg; in series [4] (butanol:hexane 8:2), 252 mg. Besides, the LiBr extracted in series [4] (butanol:hexane 8.5:1.5) was found to be 277 mg; in series [4] (butanol:hexane 9:1), 310 mg; in series [4] (butanol:hexane 10:0) it was 383 mg. Also, the “LiBr/sugar (separation efficiency)” value in series [4] (butanol:hexane 5:5) was determined as 71; in series [4] (butanol:hexane 6:4) it was 51; in series [4] (butanol:hexane 6.5:3.5) it was 49; in series [4] (butanol:hexane 7:3), 48; in series [4] (butanol:hexane 7.5:2.5) it was 46; in series [4] (butanol:hexane 8:2), 46. Further, the “LiBr/sugar (separation efficiency)” value in series [4] (butanol:hexane 8.5:1.5) turned out to be 40; in series [4] (butanol:hexane 9:1), 26; in series [4] (butanol:hexane 10:0) it was 19. Also, in series [3], the Conversion was determined as 100%. Besides, the “conversion/hydrolysis” value in series [3] is listed as “complete conversion/hydrolysis”. In addition, the “inhibition on sugar fermentation” value is “more inhibitory than NaCl and CaCl2” in the series on Saccharomyces cerevisiae (setting [9]); “the inhibition was significant” with Saccharomyces cerevisiae (salt concentration 5% (w/v)); “did not have significant inhibition” with Saccharomyces cerevisiae (salt concentration below 5% (w/v), FIG. 7).

On to `[Cl-].[Li+]` [LiCl, reference compound], for which the “conversion/hydrolysis” value in series [3] is reported as “complete conversion/hydrolysis”. The “temperature at which the solution starts crystallizing” value in series [5] turned out to be 120 °C.

As for `[Cl-].[Na+]` [NaCl, reference compound], in the series on Saccharomyces cerevisiae (salt concentration 5% (w/v)), the “inhibition on sugar fermentation” value is recorded as “showed inhibition similar to LiBr”.

Take `O=C[C@H](O)[C@@H](O)[C@H](O)[C@H](O)CO` [glucose]: the “glucose extracted into the butanol phase” value in series [4] is given as “about 10%”; in series [4] (out of 320 mg glucose), roughly 30 mg. Besides, the Glucose retained/extraction steps in series [4] (setting [10]) is 12.6; in series [4] (setting [11]) it was 14.5; in series [4] (setting [12]), 16; in series [4] (setting [13]), 18.5; in series [4] (setting [14]), 19.4; in series [4] (setting [15]) it was 17.8. In addition, the Glucose retained/extraction steps came out at 17.5 in series [4] (setting [16]), 16.5 in series [4] (setting [17]) and 16 in series [4] (setting [18]). The “Glucose retained after extraction” value is recorded as 190 mg in series [4] (setting [10]); 189 mg in series [4] (setting [11]); 187 mg in series [4] (setting [12]); 185 mg in series [4] (setting [13]); 175 mg in series [4] (setting [14]); 160 mg in series [4] (setting [15]). Besides, the “Glucose retained after extraction” value in series [4] (setting [16]) was 140 mg; in series [4] (setting [17]) it was 115 mg; in series [4] (setting [18]), 95 mg. Besides, the Glucose extracted in series [4] (butanol:hexane 5:5) is recorded as 2 mg; in series [4] (butanol:hexane 6:4), 3 mg; in series [4] (butanol:hexane 6.5:3.5), 4 mg; in series [4] (butanol:hexane 7:3) it was 4.5 mg; in series [4] (butanol:hexane 7.5:2.5) it was 5 mg; in series [4] (butanol:hexane 8:2), 5.5 mg. In addition, the Glucose extracted was 7 mg in series [4] (butanol:hexane 8.5:1.5), 12 mg in series [4] (butanol:hexane 9:1) and 20 mg in series [4] (butanol:hexane 10:0). Moreover, the “glucose extracted into butanol/hexane” value in series [2] (butanol/hexane 5:5, 30 extractions) came out at 10 mg. In series [2] (butanol/hexane 5:5, 30 extractions, from 200 mg), the “glucose left in the solution” value was 190 mg. Moreover, the “glucose left in the aqueous phase” value in series [2] (butanol/hexane 7:3, 10 extractions, 1500 mg CaBr2, 1 mL water, 200 mg glucose) is “approximately 95 mg”. Also, the Precipitated glucose in series [6] (Entry 0: LiBr 0 mg, water 0 μL) amounted to 400 mg; in series [6] (Entry 1: LiBr 50 mg, water 30 μL), 330 mg; in series [6] (Entry 2: LiBr 50 mg, water 50 μL) it was 330 mg; in series [6] (Entry 3: LiBr 50 mg, water 100 μL), 330 mg; in series [6] (Entry 4: LiBr 50 mg, water 150 μL), 330 mg; in series [6] (Entry 5: LiBr 100 mg, water 150 μL) it was 320 mg. Also, the Precipitated glucose in series [6] (Entry 6: LiBr 150 mg, water 150 μL) worked out at 300 mg; in series [6] (Entry 7: LiBr 200 mg, water 150 μL) it was 250 mg. In addition, in series [7], the “solubility in n-butanol (in words)” value is recorded as “insoluble”.
